Test results taken from the supplement of paper PMC10307832.

Columns and labels:
Test in all cases: relative viability (nuclei count vs DMSO), 5 days (fraction); higher = more cells survive
[1] = test system: BEN
How it was run: (§1)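 Lung cancer cell lines in 1536-well plates got either a single drug or a fixed anchor-drug dose together with five library-drug doses (not always all listed) in √10 steps, by pin tool, on the day after seeding. Nuclei were counted after 5 days, and relative viability is the treated-to-vehicle ratio of nuclei counts. Values are medians of duplicate plates.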

[2] = test system: CAL-12T
How it was run: as §1

[3] = test system: EKVX
How it was run: as §1

[4] = test system: HCC-366
How it was run: as §1

[5] = test system: HCC-44
How it was run: as §1

[6] = test system: LOU-NH91
How it was run: as §1

[7] = test system: LU99A
How it was run: as §1

[8] = test system: NCI-H1355
How it was run: as §1

[9] = test system: NCI-H1395
How it was run: as §1

[10] = test system: NCI-H1437
How it was run: as §1

[11] = test system: NCI-H1563
How it was run: as §1

[12] = test system: NCI-H1650
How it was run: as §1

[13] = test system: NCI-H1651
How it was run: as §1

[14] = test system: NCI-H1734
How it was run: as §1

[15] = test system: NCI-H1755
How it was run: as §1

[16] = test system: NCI-H1975
How it was run: as §1

[17] = test system: NCI-H2023
How it was run: as §1

[18] = test system: NCI-H2085
How it was run: as §1

[19] = test system: NCI-H358
How it was run: as §1

[20] = test system: NCI-H460
How it was run: as §1

[21] = test system: NCI-H838
How it was run: as §1

`Oc1nc(-c2ccc(C(F)(F)F)cc2)nc2c1CSCC2` [XAV939] + CS(=O)(=O)CCNCc1ccc(-c2ccc3ncnc(Nc4ccc(OCc5cccc(F)c5)c(Cl)c4)c3c2)o1 [Lapatinib] (partner 2 µM) showed a relative viability ([1]; first compound 0.08 µM) of 0.656, a relative viability ([1]; first compound 0.253 µM) of 0.547 and a relative viability ([1]; first compound 0.8 µM) of 0.584. The relative viability ([1]; first compound 2.53 µM) was 0.435, the relative viability ([2]; first compound 0.08 µM) was 0.729 and the relative viability ([2]; first compound 0.253 µM) was 0.664. For the same compound, the relative viability ([2]; first compound 0.8 µM) was 0.525, the relative viability ([2]; first compound 2.53 µM) was 0.426 and the relative viability ([3]; first compound 0.08 µM) was 0.193. For the same compound, the relative viability ([3]; first compound 0.253 µM) was 0.181, the relative viability ([3]; first compound 0.8 µM) was 0.162 and the relative viability ([3]; first compound 2.53 µM) was 0.125. For the same compound, the relative viability ([4]; first compound 0.08 µM) was 1.23, the relative viability ([4]; first compound 0.253 µM) was 0.861 and the relative viability ([4]; first compound 0.8 µM) was 1.01. The relative viability ([4]; first compound 2.53 µM) was 0.96, the relative viability ([5]; first compound 0.08 µM) was 1.01 and the relative viability ([5]; first compound 0.253 µM) was 0.816. The relative viability ([5]; first compound 0.8 µM) was 0.955, the relative viability ([5]; first compound 2.53 µM) was 0.928 and the relative viability ([6]; first compound 0.08 µM) was 0.73. The relative viability ([6]; first compound 0.253 µM) was 0.695, the relative viability ([6]; first compound 0.8 µM) was 0.696 and the relative viability ([6]; first compound 2.53 µM) was 0.628. It also gave a relative viability ([7]; first compound 0.08 µM) of 0.964, a relative viability ([7]; first compound 0.253 µM) of 0.851 and a relative viability ([7]; first compound 0.8 µM) of 0.995. For the same compound, the relative viability ([7]; first compound 2.53 µM) was 0.939, the relative viability ([8]; first compound 0.08 µM) was 1.02 and the relative viability ([8]; first compound 0.253 µM) was 0.857. The relative viability ([8]; first compound 0.8 µM) was 0.875, the relative viability ([8]; first compound 2.53 µM) was 0.729 and the relative viability ([9]; first compound 0.08 µM) was 0.976. For the same compound, the relative viability ([9]; first compound 0.253 µM) was 0.919, the relative viability ([9]; first compound 0.8 µM) was 0.985 and the relative viability ([9]; first compound 2.53 µM) was 1.01. It also gave a relative viability ([10]; first compound 0.08 µM) of 0.938, a relative viability ([10]; first compound 0.253 µM) of 0.709 and a relative viability ([10]; first compound 0.8 µM) of 0.772. The relative viability ([10]; first compound 2.53 µM) was 0.639, the relative viability ([11]; first compound 0.08 µM) was 1.15 and the relative viability ([11]; first compound 0.253 µM) was 0.852. The relative viability ([11]; first compound 0.8 µM) was 0.809, the relative viability ([11]; first compound 2.53 µM) was 0.773 and the relative viability ([12]; first compound 0.08 µM) was 0.762. For the same compound, the relative viability ([12]; first compound 0.253 µM) was 0.726, the relative viability ([12]; first compound 0.8 µM) was 0.836 and the relative viability ([12]; first compound 2.53 µM) was 0.454. It also gave a relative viability ([13]; first compound 0.08 µM) of 0.822, a relative viability ([13]; first compound 0.253 µM) of 0.758 and a relative viability ([13]; first compound 0.8 µM) of 0.904. It also gave a relative viability ([13]; first compound 2.53 µM) of 0.857, a relative viability ([14]; first compound 0.08 µM) of 1.34 and a relative viability ([14]; first compound 0.253 µM) of 0.9. The relative viability ([14]; first compound 0.8 µM) was 0.814, the relative viability ([14]; first compound 2.53 µM) was 0.986 and the relative viability ([15]; first compound 0.08 µM) was 0.92. For the same compound, the relative viability ([15]; first compound 0.253 µM) was 0.87, the relative viability ([15]; first compound 0.8 µM) was 0.896 and the relative viability ([15]; first compound 2.53 µM) was 0.955. The relative viability ([16]; first compound 0.08 µM) was 0.733, the relative viability ([16]; first compound 0.253 µM) was 0.655 and the relative viability ([16]; first compound 0.8 µM) was 0.753. The relative viability ([16]; first compound 2.53 µM) was 0.646, the relative viability ([17]; first compound 0.08 µM) was 0.737 and the relative viability ([17]; first compound 0.253 µM) was 0.723. For the same compound, the relative viability ([17]; first compound 0.8 µM) was 0.674, the relative viability ([17]; first compound 2.53 µM) was 0.622 and the relative viability ([18]; first compound 0.08 µM) was 0.692. For the same compound, the relative viability ([18]; first compound 0.253 µM) was 0.699, the relative viability ([18]; first compound 0.8 µM) was 0.743 and the relative viability ([18]; first compound 2.53 µM) was 0.649. It also gave a relative viability ([19]; first compound 0.08 µM) of 0.502, a relative viability ([19]; first compound 0.253 µM) of 0.469 and a relative viability ([19]; first compound 0.8 µM) of 0.494. It also gave a relative viability ([19]; first compound 2.53 µM) of 0.434, a relative viability ([20]; first compound 0.08 µM) of 1.38 and a relative viability ([20]; first compound 0.253 µM) of 0.723. The relative viability ([20]; first compound 0.8 µM) was 0.91, the relative viability ([20]; first compound 2.53 µM) was 0.937 and the relative viability ([21]; first compound 0.08 µM) was 1.13. The relative viability ([21]; first compound 0.253 µM) was 0.918, the relative viability ([21]; first compound 0.8 µM) was 0.949 and the relative viability ([21]; first compound 2.53 µM) was 0.767.
